{"source": "patent US7297796B2", "about": "“Sulfamoyl benzamide derivatives and methods of their use” (Adolor Corporation, priority 2004, dated 2007)", "key": {"[1]": {"test_system": "L5 SNL-induced tactile allodynia", "assay": "Neuropathic pain assay: L5 SNL-induced tactile allodynia (von Frey)", "type": "in vivo, rat", "settings": "L5 SNL rats, n = 7-8/group", "experimental": "Male Sprague-Dawley rats (120-250 g, Harlan Laboratories, Columbus, Ohio) were housed in pairs and allowed free access to food and water throughout the study. Room temperature and humidity were maintained at 21° C. and 70%, respectively. Nerve injury was produced with tight ligation of the left L5 spinal nerve (Kim, S. H., and J. M. Chung, Pain, 50, 355-363 (1992); LaBuda, C. J. and Fuchs, P. N., Exp Neurol., 163, 490-494(2000); LaBuda, C. J. and Fuchs, P. N., Neurosci Letters, 290, 137-140(2000); LaBuda, C. J., Donahue, R., Fuchs, P. N., Pain, 94, 59-63, (2001)). Briefly, animals were placed in the prone position to access the left L4-L6 spinal nerves. Under magnification, approximately one third of the L6 transverse process was removed. The L5 spinal nerve was identified and carefully dissected free from the adjacent L4 spinal nerve and then tightly ligated using 6-0 silk suture. The wound was treated with an antiseptic solution, the muscle layer was sutured, and the wound was closed with wound clips. Sham-operated surgical controls were prepared in the same manner, but the L5 spinal nerve was not […]. All housing conditions and experimental procedures were performed in accordance with the ethical guidelines of the IASP and the Adolor Corporation Animal Care and Use Committee.\nSeven to ten animals per group were used for all behavioral assays. After a 7-10 day post-surgical recovery, animals were tested for baseline sensitivity to tactile stimulation of both hindpaws. Allodynic animals were defined as animals having a threshold of less than 7.5 grams of pressure applied to the injured hindpaw. Tactile sensitivity was evaluated using von Frey monofilaments before and after treatment. […] Thirty minutes after treatment, tactile sensitivity was evaluated. Five to seven days later, animals were tested using a different compound. Each animal was tested three times with different compounds. All behavioral testing was performed between 9:00 AM and 5:00 PM in a well-illuminated room with white background noise.\nAnimals were placed in a Plexiglas chamber (20 cm×10.5 cm×40.5 cm) and habituated for 15 minutes. The chamber was positioned on top of a mesh screen so that von Frey monofilaments could be presented to the plantar surfaces of both hindpaws. Measurements of tactile sensitivity for each hindpaw were obtained using the up/down method (Dixon, W. J., Annu Rev Pharmacol Toxicol 20, 441-462, 1980) with seven von Frey monofilaments (0.04, 0.07, 0.16, 0.4, 1, 6, and 15 grams). Each trial started with a von Frey force of 0.4 g delivered to the right hindpaw and then the left hindpaw for approximately 1-2 sec each. If there was no withdrawal response, the next higher force was delivered. If there was a response, the next lower force was delivered. This procedure was performed until no response was made at the highest force (15 grams) or until four stimuli were administered following the initial response. The 50% paw withdrawal threshold for each paw was calculated using the following formula: [Xth]log=[vFr]log+ky where [vFr] is the force of the last von Frey filament used, k=0.2249 which is the average interval (in log units) between the von Frey monofilaments, and y is a value that depends upon the pattern of withdrawal responses (Dixon, Id.). […] Testing for tactile sensitivity was performed twice and the mean 50% withdrawal value assigned as the tactile sensitivity for the right and left paws for each animal.\nTactile sensitivity for both hindpaws before and after treatments were analyzed using one-way analysis of variance (ANOVA) followed by post-hoc comparisons (protected t-test) for group differences. An alpha level of 0.05 was used for all analyses."}, "[2]": {"target": "T1, CB1 receptor (Homo sapiens, UniProt P21554)", "T1 construct": "expressed in transfected cells; membranes", "T1 sequence (P21554 whole entry)": "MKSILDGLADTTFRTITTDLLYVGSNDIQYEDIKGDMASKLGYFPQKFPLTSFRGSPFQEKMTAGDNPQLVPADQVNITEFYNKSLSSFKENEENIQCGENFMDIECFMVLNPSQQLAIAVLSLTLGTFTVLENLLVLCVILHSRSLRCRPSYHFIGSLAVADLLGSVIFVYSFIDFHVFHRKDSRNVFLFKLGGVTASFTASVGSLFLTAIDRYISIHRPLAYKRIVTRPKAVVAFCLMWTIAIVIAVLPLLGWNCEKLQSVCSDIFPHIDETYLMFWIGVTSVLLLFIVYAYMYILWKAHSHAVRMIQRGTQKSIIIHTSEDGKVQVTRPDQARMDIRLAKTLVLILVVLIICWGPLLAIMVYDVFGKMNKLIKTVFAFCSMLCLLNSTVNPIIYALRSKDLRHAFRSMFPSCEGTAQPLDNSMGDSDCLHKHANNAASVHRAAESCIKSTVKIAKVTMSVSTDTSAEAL", "assay": "hCB1 receptor binding, [3H]CP55940 displacement", "settings": "human cloned CB1 receptor", "experimental": "(§1) Ki values in receptor binding experiments were determined by Cheng-Prusoff correction of IC50 values derived from automated nonlinear regression analysis of sigmoidal titration curves using a three-parameter modification (slope set to 1.0) of the four-parameter equation described in Cheng, Y.-C. and W. H. Prusoff, Biochem. Pharmacol. 22:3099-3108 (1973) and DeLean et al., Am. J. Physiol. 235:E97-E102 (1978).\n(§2) Chinese hamster ovary cells (CHO-K1), stably transfected with either hCB1 or hCB2, were washed two times with cold PBS, scraped from 500 cm^2 tissue culture plates, and pelleted by centrifugation at 1000×g for 10 min. The supernatant was discarded and the pellet was resuspended in Tris assay buffer (50 mM Tris HCl, pH 7.8, containing 1.0 mM EGTA, 5.0 mM MgCl2, […], and 0.5 mg/mL aprotinin), homogenized with a Polytron homogenizer (Brinkmann) at a setting of 1 for 20 sec and centrifuged at 38,000×g for 20 min at 4° C. The pellet was resuspended in Tris assay buffer and aliquots of 1 mg protein/mL were stored at −80° C. for further use.\n(§3) Binding assays were performed by incubating 0.2-0.6 nM (34,000-100,000 dpm) [^3H]CP55940 with membranes prepared from cells expressing cloned human CB1 or CB2 receptors in buffer A (50 mM Tris HCl, pH 7.0, 5.0 mM MgCl2, 1.0 mM EGTA and 1.0 mg/mL fatty acid free bovine serum albumin). After incubation for 60 min at room temperature for the hCB2 binding assay or 120 min at 30° C. for the hCB1 assay, the assays were filtered through GF/C filters that had been pre-soaked overnight in 0.5% (w/v) PEI and 0.1% BSA in water. The filters were rinsed 6 times with one mL of cold wash buffer (50 mM Tris HCl, pH 7.0, 5.0 mM MgCl2, 1.0 mM EGTA and 0.75 mg/mL fatty acid free bovine serum albumin), 30 μL of MicroScint 20 was added to each filter and the radioactivity on the filters determined by scintillation spectroscopy. Nonspecific binding was determined in the presence of 10 μM WIN55212-2."}, "[3]": {"target": "T2, CB2 receptor (Homo sapiens, UniProt P34972)", "T2 construct": "expressed in transfected cells; membranes", "T2 sequence (P34972 whole entry)": "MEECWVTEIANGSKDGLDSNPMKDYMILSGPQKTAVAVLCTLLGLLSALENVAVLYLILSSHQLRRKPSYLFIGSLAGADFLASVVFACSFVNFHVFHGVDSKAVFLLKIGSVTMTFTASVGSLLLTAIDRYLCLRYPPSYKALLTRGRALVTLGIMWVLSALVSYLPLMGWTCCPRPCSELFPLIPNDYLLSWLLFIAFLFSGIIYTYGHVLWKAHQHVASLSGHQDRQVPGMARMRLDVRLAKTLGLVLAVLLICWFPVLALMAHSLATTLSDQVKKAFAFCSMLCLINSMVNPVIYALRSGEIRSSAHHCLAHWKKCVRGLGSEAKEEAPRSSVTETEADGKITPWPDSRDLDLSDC", "assay": "hCB2-mediated [35S]GTPγS binding", "type": "biochemical", "settings": "for EC50: agonist, read-out: in vitro CB2 receptor agonist potency EC50", "experimental": "(§4) EC50 values in functional assays were also derived from automated nonlinear regression analysis of sigmoidal titration curves using the three-parameter modification of the four-parameter equation.\nas §2\nhCB2-Mediated [^35S]GTPγS binding was measured in the same way except the assay mixture contained […] and the incubation time was 6 hours. [^35S]GTPγS binding in rat cerebellar homogenate was determined in a mixture containing 40-60 pM [^35S]GTPγS, homogenate assay buffer (50 mM Tris-HCl, 3 mM MgCl2, 0.2 mM EGTA), 100 mM NaCl, 10 mM MgCl2, […], 20 μg homogenate protein/well and agonist in a total volume of 250 μL in 96 well Basic Flashplates (Perkin Elmer). After incubation at 30° C. for 2 hours, the plates were centrifuged at 800×g at 4° C. for 5 min and the radioactivity bound to the membrane was determined by scintillation spectrometry using the Topcount (Perkin Elmer)."}, "[4]": {"target": "T2, CB2 receptor", "assay": "hCB2 receptor binding, [3H]CP55940 displacement", "settings": "human cloned CB2 receptor", "experimental": "as §1, §2, §3"}, "[5]": {"target": "T1, CB1 receptor", "assay": "hCB1-mediated stimulation of [35S]GTPγS binding", "type": "biochemical", "settings": "agonist; read-out: in vitro CB1 receptor agonist potency EC50", "experimental": "as §4\nas §2, with “The pellet was resuspended in Tris assay buffer and aliquots of 1 mg protein/mL were stored at −80° C. for further use.” left out\nhCB1-Mediated stimulation of [^35S]GTPγS binding was measured in a mixture containing 100-150 pM [^35S]GTPγS, 150 mM NaCl, 45 mM MgCl2, […], 0.4 mM DTT, 1 mM EGTA, 1 mg/mL fatty acid free BSA, 25 μg of membrane protein and agonist in a total volume of 250 μL of buffer A in 96 well Basic Flashplates (Perkin Elmer). After incubation at room temperature for 2 hours the plates were centrifuged at 800×g at 4° C. for 5 min and the radioactivity bound to the membranes was determined by scintillation spectrometry using the Topcount (Perkin Elmer)."}}}
{"smiles": "Cc1c(C(=O)c2cccc3ccccc23)c2cccc3c2n1[C@H](CN1CCOCC1)CO3", "note": "[WIN, WIN 55,212-2, reference compound]", "values": [{"measurement": "Anti-Allodynia [%]", "setting": "[1]; 2.5 mg/kg", "value": "75.2 ± 13.8", "unit": "%"}]}
{"smiles": "CN(Cc1ccccc1)S(=O)(=O)c1cc(C(=O)NC2C(C)(C)[C@@H]3CC[C@]2(C)C3)ccc1Br", "note": "(stereo in doubt) [Compound 23, 3-(Benzyl-methyl-sulfamoyl)-4-bromo-N-(1,3,3-tri-methyl-bicyclo[2.2.1]hept-2-yl)-benzamide]", "values": [{"measurement": "Ki", "setting": "[2]", "value": "> 1000", "unit": "nM"}, {"measurement": "IC50", "setting": "[3]; antagonist, read-out: in vitro CB2 receptor antagonist potency IC50", "value": 13.7, "unit": "nM"}, {"measurement": "Ki", "setting": "[4]", "value": 10.3, "unit": "nM"}]}
{"smiles": "CC1(C)[C@@H]2CC[C@@](C)(C2)[C@@H]1NC(=O)c1ccc(Br)c(S(=O)(=O)N2CCCCC2)c1", "note": "[Compound 17, 4-Bromo-3-(piperidine-1-sul-fonyl)-N-(1,3,3-tri-methylbicyclo[2.2.1]hept-2-yl)-benzamide]", "values": [{"measurement": "Ki", "setting": "[2]", "value": 93, "unit": "nM"}, {"measurement": "EC50", "setting": "[3]", "value": 18.2, "unit": "nM"}, {"measurement": "Ki", "setting": "[4]", "value": 13.1, "unit": "nM"}, {"measurement": "EC50", "setting": "[5]", "value": 326, "unit": "nM"}]}
{"smiles": "CN1CCCCC1Cn1cc(C(=O)c2cc([N+](=O)[O-])ccc2I)c2ccccc21", "note": "(centres unmarked) [AM1241, reference compound]", "values": [{"measurement": "Anti-Allodynia [%]", "setting": "[1]; 3 mg/kg", "value": "27.5 ± 10.1", "unit": "%"}]}
{"smiles": "Cc1ccc(C(=O)N[C@H]2C(C)(C)[C@@H]3CC[C@@]2(C)C3)cc1S(=O)(=O)N1CCOCC1", "note": "[Compound 26, 4-Methyl-3-(morpholine-4-sul-fonyl)-N,S-(1,3,3-tri-methyl-bicyclo[2.2.1]-hept-2-yl)-benzamide]", "values": [{"measurement": "Ki", "setting": "[2]", "value": 121, "unit": "nM"}, {"measurement": "EC50", "setting": "[3]", "value": 7.8, "unit": "nM"}, {"measurement": "Anti-Allodynia [%]", "setting": "[1]; 1 mg/kg", "value": "53.5 ± 14.2", "unit": "%"}, {"measurement": "Anti-Allodynia [%]", "setting": "[1]; 3 mg/kg", "value": "61.7 ± 13.6", "unit": "%"}, {"measurement": "Anti-Allodynia [%]", "setting": "[1]; 6 mg/kg", "value": "61.1 ± 12.6", "unit": "%"}, {"measurement": "Anti-Allodynia [%]", "setting": "[1]; 10 mg/kg", "value": "44.0 ± 16.2", "unit": "%"}, {"measurement": "Ki", "setting": "[4]", "value": 3.7, "unit": "nM"}, {"measurement": "EC50", "setting": "[5]", "value": 2000, "unit": "nM"}]}
